Reference: PubChem BioAssay (NCI)
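These data come from cells grown in 96-well plates and exposed to compound for 48 hours at five concentrations. GI50: concentration for 50% inhibition of growth. Definition used: TGI = concentration required for complete inhibition of growth.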

Legend:
Test in all cases: growth of human tumour cells (NCI), 48 h
BT-549 breast = test system: BT-549 breast
COLO 205 colon = test system: COLO 205 colon
HT29 colon = test system: HT29 colon
KM12 colon = test system: KM12 colon
LOX IMVI melanoma = test system: LOX IMVI melanoma
NCI-H23 lung = test system: NCI-H23 lung
SNB-19 CNS = test system: SNB-19 CNS
SNB-75 CNS = test system: SNB-75 CNS
SR leukemia = test system: SR leukemia
UO-31 renal = test system: UO-31 renal

Cn1c(=O)c2[nH]c(SCc3ccccn3)nc2n(C)c1=S
TGI (BT-549 breast): > 100 µM
TGI (COLO 205 colon): > 100 µM
TGI (HT29 colon): > 100 µM
TGI (KM12 colon): > 100 µM
TGI (LOX IMVI melanoma): > 100 µM
TGI (NCI-H23 lung): > 100 µM
TGI (SNB-19 CNS): > 100 µM
TGI (SNB-75 CNS): 45.2 µM
TGI (SR leukemia): > 100 µM
TGI (UO-31 renal): > 100 µM

Oc1ccc(CN2CCC(N3CCCCC3)CC2)c2cccnc12
GI50 (BT-549 breast): 11.5 µM
TGI (BT-549 breast): > 100 µM
GI50 (COLO 205 colon): 48.4 µM
TGI (COLO 205 colon): > 100 µM
GI50 (HT29 colon): 93.7 µM
TGI (HT29 colon): > 100 µM
GI50 (KM12 colon): 30.3 µM
TGI (KM12 colon): > 100 µM
GI50 (LOX IMVI melanoma): 5.32 µM
TGI (LOX IMVI melanoma): > 100 µM
GI50 (NCI-H23 lung): 6.05 µM
TGI (NCI-H23 lung): > 100 µM
GI50 (SNB-19 CNS): 21.6 µM
TGI (SNB-19 CNS): > 100 µM
GI50 (SNB-75 CNS): 2.85 µM
TGI (SNB-75 CNS): > 100 µM
GI50 (SR leukemia): 16.7 µM
TGI (SR leukemia): > 100 µM
GI50 (UO-31 renal): 6.2 µM
TGI (UO-31 renal): 34.6 µM

N#CSc1c[nH]c2cccc(/C=C/C(=O)/C=C(/C=C/c3cccc4[nH]cc(SC#N)c34)OB(F)F)c12
GI50 (BT-549 breast): 1.26 µM
TGI (BT-549 breast): 3.86 µM
GI50 (COLO 205 colon): 0.293 µM
TGI (COLO 205 colon): 0.856 µM
GI50 (HT29 colon): 0.386 µM
TGI (HT29 colon): 2.26 µM
GI50 (KM12 colon): 1.04 µM
TGI (KM12 colon): 3.98 µM
GI50 (LOX IMVI melanoma): 0.243 µM
TGI (LOX IMVI melanoma): 0.677 µM
GI50 (NCI-H23 lung): 0.755 µM
TGI (NCI-H23 lung): 3.29 µM
GI50 (SNB-19 CNS): 2.33 µM
TGI (SNB-19 CNS): 14.7 µM
GI50 (SNB-75 CNS): 2.18 µM
TGI (SNB-75 CNS): 7.55 µM
GI50 (SR leukemia): 0.345 µM
TGI (SR leukemia): > 100 µM
GI50 (UO-31 renal): 0.391 µM
TGI (UO-31 renal): 1.55 µM

CC[C@]1(O)C[C@@H]2CN(CCc3c([nH]c4ccccc34)[C@@](C(=O)OC)(c3cc4c(cc3OC)N(C)[C@H]3[C@@](O)(C(=O)OC)[C@H](OC(C)=O)[C@]5(CC)C=CCN6CC[C@]43[C@@H]65)C2)C1
GI50 (BT-549 breast): < 0.01 µM
TGI (BT-549 breast): 8.4 µM
GI50 (COLO 205 colon): < 0.01 µM
TGI (COLO 205 colon): < 0.0194 µM
GI50 (HT29 colon): < 0.01 µM
TGI (HT29 colon): 18.9 µM
GI50 (KM12 colon): < 0.01 µM
TGI (KM12 colon): 14.4 µM
GI50 (LOX IMVI melanoma): < 0.01 µM
TGI (LOX IMVI melanoma): 14.8 µM
GI50 (NCI-H23 lung): < 0.01 µM
TGI (NCI-H23 lung): > 100 µM
GI50 (SNB-19 CNS): < 0.01 µM
TGI (SNB-19 CNS): > 100 µM
GI50 (SNB-75 CNS): < 0.01 µM
TGI (SNB-75 CNS): 0.592 µM
GI50 (SR leukemia): < 0.01 µM
TGI (SR leukemia): 19.6 µM
GI50 (UO-31 renal): 0.175 µM
TGI (UO-31 renal): 19.1 µM

O/N=C/C1c2ccccc2-c2ccccc21
TGI (BT-549 breast): 33.1 µM
TGI (COLO 205 colon): 30.7 µM
TGI (HT29 colon): 28.6 µM
TGI (KM12 colon): 37.4 µM
TGI (LOX IMVI melanoma): 63.3 µM
TGI (NCI-H23 lung): 37.6 µM
TGI (SNB-19 CNS): 38.6 µM
TGI (SR leukemia): 51.7 µM
TGI (UO-31 renal): 32.4 µM

Cc1ccc2c(c1)[n+]([O-])c(N)n[n+]2[O-]
TGI (BT-549 breast): > 100 µM
TGI (COLO 205 colon): > 100 µM
TGI (HT29 colon): > 100 µM
TGI (KM12 colon): > 100 µM
TGI (LOX IMVI melanoma): > 100 µM
TGI (NCI-H23 lung): > 100 µM
TGI (SNB-19 CNS): > 100 µM
TGI (SNB-75 CNS): > 100 µM
TGI (SR leukemia): > 100 µM
TGI (UO-31 renal): > 100 µM

O=C1CCCCN1CCCCC#Cc1ccccc1C#Cc1ccc([N+](=O)[O-])cc1
GI50 (BT-549 breast): 16.6 µM
TGI (BT-549 breast): 44.6 µM
GI50 (COLO 205 colon): 2.75 µM
TGI (COLO 205 colon): 7.17 µM
GI50 (HT29 colon): 3.74 µM
TGI (HT29 colon): 59.6 µM
GI50 (KM12 colon): 3.78 µM
TGI (KM12 colon): 15.7 µM
GI50 (LOX IMVI melanoma): 2.79 µM
TGI (LOX IMVI melanoma): 8.87 µM
GI50 (NCI-H23 lung): 4.23 µM
TGI (NCI-H23 lung): 17.1 µM
GI50 (SNB-19 CNS): 6.57 µM
TGI (SNB-19 CNS): 19.4 µM
GI50 (SNB-75 CNS): 2.21 µM
TGI (SNB-75 CNS): 28.9 µM
GI50 (SR leukemia): 0.0255 µM
TGI (SR leukemia): 2.14 µM
GI50 (UO-31 renal): 19.5 µM
TGI (UO-31 renal): 84.6 µM
